What was measured:
[1] = target: T1, Synaptic vesicular amine transporter (Rattus norvegicus, UniProt Q01827); assay: Displacement of [3H]-DTBZ from VMAT2 in rat striatal membrane homogenates; type: cell membranes, Striatum
[2] = target: T1, Synaptic vesicular amine transporter; assay: Displacement of [125I]-iodovinyl-TBZ from VMAT2 in rat striatal membrane homogenates; type: cell membranes, Striatum
[3] = Ratio of drug level in striatum to cerebellum in iv dosed mouse after 30 mins; type: ADME, organism-based; conditions: in vivo, 0.5 h
[4] = target: Synaptic vesicular amine transporter (Homo sapiens, UniProt Q05940); assay: Binding affinity to VMAT2
Sequence of Synaptic vesicular amine transporter (Homo sapiens, UniProt Q05940) (Q05940 whole entry): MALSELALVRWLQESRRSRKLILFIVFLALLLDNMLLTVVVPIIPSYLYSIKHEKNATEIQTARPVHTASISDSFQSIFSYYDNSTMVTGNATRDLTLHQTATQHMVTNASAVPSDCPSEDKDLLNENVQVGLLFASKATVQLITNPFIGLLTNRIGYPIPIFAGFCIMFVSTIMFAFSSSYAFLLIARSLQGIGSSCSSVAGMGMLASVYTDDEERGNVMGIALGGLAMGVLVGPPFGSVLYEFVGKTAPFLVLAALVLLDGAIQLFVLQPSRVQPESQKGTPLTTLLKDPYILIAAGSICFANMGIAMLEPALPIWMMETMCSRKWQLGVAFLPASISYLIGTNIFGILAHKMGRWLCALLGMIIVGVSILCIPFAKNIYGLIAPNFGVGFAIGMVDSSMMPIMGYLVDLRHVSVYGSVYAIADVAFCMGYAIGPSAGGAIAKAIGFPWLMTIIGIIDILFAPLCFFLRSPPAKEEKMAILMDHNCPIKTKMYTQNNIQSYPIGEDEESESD

T1 sequence (Q01827 whole entry): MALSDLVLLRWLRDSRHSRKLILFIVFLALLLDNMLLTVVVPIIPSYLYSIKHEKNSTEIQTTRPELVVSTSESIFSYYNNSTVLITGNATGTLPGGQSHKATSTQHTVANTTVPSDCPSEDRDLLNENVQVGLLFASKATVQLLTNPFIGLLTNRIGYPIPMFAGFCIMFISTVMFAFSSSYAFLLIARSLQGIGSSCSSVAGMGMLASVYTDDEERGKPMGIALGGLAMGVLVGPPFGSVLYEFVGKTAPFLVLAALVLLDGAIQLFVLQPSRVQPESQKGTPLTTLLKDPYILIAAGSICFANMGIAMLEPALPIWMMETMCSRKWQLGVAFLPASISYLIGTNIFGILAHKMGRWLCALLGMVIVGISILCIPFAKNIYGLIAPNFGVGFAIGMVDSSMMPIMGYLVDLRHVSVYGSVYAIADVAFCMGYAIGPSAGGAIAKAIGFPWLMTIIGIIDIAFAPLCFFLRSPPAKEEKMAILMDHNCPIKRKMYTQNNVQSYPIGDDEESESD

Ki [1] [nM]	Ki [2] [nM]	Ratio [3]	Ki [4] [nM]	SMILES
150	45	–	–	COc1cc2c(cc1OC)C1CC(N)C(CC(C)C)CN1CC2 (stereo unspecified)
7.01	8.68	–	–	COc1cc2c(cc1OC)C1CC(NCCCF)C(CC(C)C)CN1CC2 (stereo unspecified)
269	199	–	–	CNC1CC2c3cc(OC)c(OC)cc3CCN2CC1CC(C)C (stereo unspecified)
0.36	0.24	4.51	0.1	COc1cc2c(cc1OCCCF)CCN1C[C@@H](CC(C)C)[C@H](O)C[C@H]21 [FLORBENAZINE]

Second part, the molecule before the results:

SMILES	Ki [1] [nM]	Ki [2] [nM]	Ratio [3]	Ki [4] [nM]
COc1cc2c(cc1OC)C1CC(NCCF)C(CC(C)C)CN1CC2 (mixture of isomers)	230	28	–	–
COc1cc2c(cc1OC)C1CC(NCCF)C(CC(C)C)CN1CC2 (single isomer, unassigned; diastereomer 2)	686	226	–	–
COc1cc2c(cc1OC)C1CC(NCCF)C(CC(C)C)CN1CC2 (stereo in doubt; 4-I)	8.63	9.21	–	–

From ChEMBL document CHEMBL1155310, “Synthesis and evaluation of 2-amino-dihydrotetrabenzine derivatives as probes for imaging vesicular monoamine transporter-2” (Bioorg Med Chem Lett, 2009)
